Test results as given in article PMC9954146, “Anti-Leukaemic Activity of Rilpivirine Is Mediated by Aurora A Kinase Inhibition” (Cancers, 2023).
Read-outs that look alike come from different tables or passages of the source.

What was measured:
LYN = biological target: T1, LYN (Homo sapiens, UniProt P07948); assay: Radioisotope-based kinase assay (Ki); format: biochemical; conditions: apparent Ki from IC50 and Km (ATP)
T1 construct: purchased Reaction Biology Corporation (assay service)
Protocol: (§1) Kinome-wide selectivity of rilpivirine was measured using the kinase screening and profiling service of Eurofins Scientific (Le bois l’Evêque 86600. Celle-Lévescault, France) and Ki values were determined using radioisotope-based assays by Reaction Biology Corporation (Malvern, PA, USA). The experimental details of Eurofin Scientific and Reaction Biology services for relevant assays are available at https://www.eurofinsdiscoveryservices.com/services/in-Vitro-assays/kinases/kinase-profiler (accessed on 7 July 2021) and https://www.reactionbiology.com (accessed on 7 July 2021), respectively. Ki values were estimated from the corresponding IC50 values using the Cheng–Prusoff equation [21] and the Km (ATP) of individual kinase was used for IC50 determination.

PIM1 [1] = assay: Radioisotope-based kinase assay (Ki); format: biochemical; conditions: PIM1 vs Aurora A
Protocol: as §1

YES = biological target: T2, YES (Homo sapiens, UniProt P07947); assay: Radioisotope-based kinase assay (Ki); format: biochemical; conditions: apparent Ki from IC50 and Km (ATP)
T2 construct: purchased Reaction Biology Corporation (assay service)
Protocol: as §1

[2] = test system: leukaemia cell lines (HL-60, NB4, K-562, and U-937); assay: Resazurin cell viability assay, four cell lines; format: cell-based; conditions: Homo sapiens; after 24, 48, or 72 h of treatment; read-out: GI50 values, range over all cell lines
Protocol: Cell viability was determined by a resazurin-based assay as described previously. Briefly, 5 × 10^3 cells/well were seeded into 96-well plates (Corning Inc., Corning, NY, USA) in 180 µL of RPMI 1640 medium and incubated overnight at 37 °C with 5% CO2. Next day, cells were treated with rilpivirine after serially diluted (1:2 dilution for final concentrations ranging from 0.625 µM to 40 µM) or DMSO (0.1%) for specified time periods (24, 48, or 72 h). At the end of the treatment period, 20 µL of resazurin (0.1 mg/mL in PBS) was added per well and incubated for further 4 h. Fluorescence intensities were recorded at 570 nm (excitation)/585 nm (emission) using an EnVision® multilabel plate reader (PerkinElmer, MA, USA). Drug concentrations required for cell viability reduction by 50% (GI50) compared with untreated (DMSO vehicle-treated only) control were determined by a non-linear regression model using GraphPad Prism software version 7.02 (La Jolla, CA, USA).

HL-60 cells = assay: Colony formation assay; format: cell-based, human; conditions: 2.5, 5, or 10 µM, 10 days
Protocol: (§2) For colony formation assay, 2 × 10^3 cells/well (in 6-well plates) were treated for 10 days with rilpivirine (2.5, 5, or 10 µM) or DMSO (0.1%) and incubated with 1.5 mL of cytokine-free H4230 medium ([…] Technologies, Inc., Vancouver, BC, Canada). After the incubation period, cells were stained with 300 µL/well of 3-(4,5-dimethylthiazol-2-yl)-2,5-diphenyltetrazolium bromide solution (0.5 mg/mL in PBS) (Sigma-Aldrich, St Louis, MO, USA) and incubated for 1 h. Colonies were then counted on an inverted microscope.

NB4 cells = assay: Colony formation assay; format: cell-based, human; conditions: 2.5, 5, or 10 µM, 10 days
Protocol: as §2

[3] = test system: caspase 3/7 in HL-60, NB4, K-562, and U-937 cells; assay: Caspase-3/7 activity assay; format: cell-based, human; conditions: 10 µM, 48 h, all cell lines
Protocol: Caspase-3/7 activity was measured after incubation of the cells with the test compounds for a specified time point using an Apo-ONE homogeneous caspase-3/7 kit (Promega, Madison, WI, USA) according to the manufacturer’s instructions. The signal was recorded by the EnVision multi-label plate reader (PerkinElmer, Beaconsfield, UK).

[4] = test system: Aurora A kinase signalling pathway proteins in HL-60 cells; assay: Western blotting, HL-60 time course and combination; format: cell-based, human; conditions: 10 µM, time course
Protocol: Western blotting was performed following a method described previously. Briefly, 8 × 10^5 to 1 × 10^6 cells were seeded in petri dishes with 8 to 10 mL of culture medium and incubated overnight at 37 °C, 5% CO2. Then, the cells were treated with the test compounds and further incubated for the specified time point. Cells were then lysed using a lysis buffer containing protease inhibitors, and proteins were extracted by centrifugation. Protein concentrations were determined by using a Bio-Rad DC^TM protein assay kit (Bio-Rad Laboratories, Hercules, CA, USA). A total of 20–30 μg of proteins was loaded onto each well of 4–20% polyacrylamide gels for electrophoresis. Once electrophoresis was completed, gels were placed on pre-soaked polyvinylidene difluoride membranes and blocked with 10% skimmed milk in 1 × Tris-buffered saline and Tween (TBST). Then, the blots were incubated with primary antibodies, followed by washing with TBST for 4 × 20 min. After this, the blots were incubated with the appropriate horseradish peroxidase (HRP)-conjugated secondary antibody, followed by washing again with TBST for 4 × 20 min. The protein bands were then detected with either ECL prime (Amersham^TM ECL^TM prime Western blotting detection reagent) or ECL select (Amersham^TM ECL^TM select Western blotting detection reagent) depending on the abundance of the protein of interest. The blots were imaged using the Bio-Rad ChemiDoc^TM MP imaging system (Bio-Rad Laboratories, Hercules, CA, USA). All the primary and secondary antibodies used in this study were purchased from Cell Signaling Technology (Danvers, MA, USA).

HL-60 xenograft = assay: In vivo anti-cancer efficacy, HL-60 xenograft; conditions: 200 mg/kg oral gavage once daily for 15 days
Protocol: An in vivo anti-cancer efficacy study was performed as reported previously. Briefly, female nude BALB/c mice (6–8 weeks of age) were engrafted with HL-60 human leukaemic cells subcutaneously into the rear flanks. Before inoculation, HL-60 (5 × 10^6) cells were cultured, harvested, and re-suspended in a 1:1 mixture of serum-free media and Matrigel (BD Biosciences, NSW, Australia). Mice with 100–200 mm^3 tumour size were allocated randomly into the control or treatment group. Rilpivirine and vehicle (0.5% HPMC) were administered by oral gavage daily. Mice were checked daily for any clinical signs of toxicity, including weight loss. Tumour volume was measured every other day and was calculated as length × width × height. At the end of the study period, or if clinical endpoints were reached as determined by a clinical record sheet score of 4, body condition score of 1, weight loss of ≥15%, or tumour growth of ≥2000 mm^3, the mouse was euthanised. Data analysis was performed using GraphPad Prism software version 7.02 (La Jolla, CA, USA).

Aurora A = biological target: Aurora A; parameters: method as in PMID 36297298; conditions: apparent Ki from IC50 and Km (ATP), cited from earlier work
PIM1 [5] = biological target: PIM1; parameters: method as in PMID 36297298; conditions: apparent Ki from IC50 and Km (ATP); cited from earlier work

T1 sequence (P07948 whole entry): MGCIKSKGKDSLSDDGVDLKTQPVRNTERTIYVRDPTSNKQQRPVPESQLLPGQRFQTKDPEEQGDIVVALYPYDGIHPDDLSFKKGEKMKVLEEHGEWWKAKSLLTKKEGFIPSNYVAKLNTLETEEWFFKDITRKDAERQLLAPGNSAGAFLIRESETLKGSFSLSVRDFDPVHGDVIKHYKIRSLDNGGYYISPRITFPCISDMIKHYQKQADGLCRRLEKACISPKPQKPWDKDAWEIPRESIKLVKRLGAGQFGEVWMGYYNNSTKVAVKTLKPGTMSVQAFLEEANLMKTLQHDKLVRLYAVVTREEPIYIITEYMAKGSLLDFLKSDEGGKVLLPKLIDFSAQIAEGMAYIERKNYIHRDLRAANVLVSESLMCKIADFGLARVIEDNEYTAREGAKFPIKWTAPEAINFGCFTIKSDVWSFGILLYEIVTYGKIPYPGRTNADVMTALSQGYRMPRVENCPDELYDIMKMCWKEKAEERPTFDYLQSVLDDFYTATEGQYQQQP
T2 sequence (P07947 whole entry): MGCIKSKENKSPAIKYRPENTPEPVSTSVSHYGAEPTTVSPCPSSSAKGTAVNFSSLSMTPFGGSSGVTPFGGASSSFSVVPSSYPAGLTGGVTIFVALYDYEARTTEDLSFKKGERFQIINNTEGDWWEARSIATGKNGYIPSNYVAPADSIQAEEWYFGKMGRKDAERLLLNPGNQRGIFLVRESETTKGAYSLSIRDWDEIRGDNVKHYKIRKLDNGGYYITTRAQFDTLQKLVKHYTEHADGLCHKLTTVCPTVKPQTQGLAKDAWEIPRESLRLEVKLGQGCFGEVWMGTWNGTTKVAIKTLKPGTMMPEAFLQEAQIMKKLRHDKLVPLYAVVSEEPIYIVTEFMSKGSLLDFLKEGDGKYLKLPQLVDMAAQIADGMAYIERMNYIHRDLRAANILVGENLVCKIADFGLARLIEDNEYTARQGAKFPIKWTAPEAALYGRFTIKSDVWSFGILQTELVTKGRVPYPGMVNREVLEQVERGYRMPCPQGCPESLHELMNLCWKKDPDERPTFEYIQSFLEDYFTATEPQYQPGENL

## Cc1cc(/C=C/C#N)cc(C)c1Nc1ccnc(Nc2ccc(C#N)cc2)n1 [rilpivirine, (E)-4-((4-((4-(2-cyanoethenyl)-2,6-dimethylphenyl)amino)pyrimidin-2-yl)amino)benzonitrile]
LYN
  Ki: 930 nM
PIM1 [1]
  potency against PIM1 relative to Aurora A kinase: four-and-a-half-fold less potent
YES
  Ki: 1570 nM
[2]
  GI50: 4120 to 12400 nM
HL-60 cells
  clonogenic growth: significantly decreased
NB4 cells
  clonogenic growth: significantly decreased
[3]
  caspase 3/7 activation vs untreated control: significantly increased
[4]
  time from which PARP cleavage was detected: ≥ 12 h
  time of maximum induction of phospho-Histone H3 (Ser10): 18 h
  time until inhibition of Aurora-A autophosphorylation was evident: ≤ 6 h
HL-60 xenograft
  day from which reduction in tumour growth was statistically significant (p < 0.001): ≥ 11 days
  signs of toxicity or weight loss during treatment: did not cause any apparent signs of toxicity or weight loss
  tumour growth compared with vehicle-treated group: noticeable delay in tumour growth
Aurora A
  Ki: ~116 nM
Aurora A; listed as Rilpivirine
  Ki: 120 nM
PIM1 [5]
  Ki: 520 nM
